Data from PubChem BioAssay AID330 (DTP/NCI, 2004).
Several values for one entry are separate records, joined by “and”; a condition that tells them apart may be missing. Identical values can stand only once. Toxic doses and inconclusive results are not listed. How the source made its calls: active means survival T/C of 150% or more; inactive means T/C below 125% in these data.

System: P388 leukemia ip, CD2F1 mice, survival T/C
Assay: NCI In Vivo Anticancer Drug Screen. Data for tumor model P388 Leukemia (intraperitoneal) in CD2F1 (CDF1) mice
Settings: endpoint: median survival time, higher = longer survival
How it was run: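 Mice carrying the transplanted tumor received test compound or vehicle. Survival was recorded in each group, and the value is the treated-group measurement divided by that of the vehicle-treated control group.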

[1] = dose: 25.0 mg/kg/injection, schedule: Q04DX003 (ip), vehicle: saline
[2] = dose: 50.0 mg/kg/injection, schedule: Q04DX003 (ip), vehicle: saline
[3] = dose: 60.0 mg/kg/injection, schedule: Q01DX005 (ip), vehicle: saline with Tween-80
[4] = dose: 120.0 mg/kg/injection, schedule: Q01DX005 (ip), vehicle: saline with Tween-80
[5] = dose: 240.0 mg/kg/injection, schedule: Q01DX005 (ip), vehicle: saline with Tween-80
[6] = dose: 6.25 mg/kg/injection, schedule: Q01DX009 (ip), vehicle: saline with Tween-80
[7] = dose: 12.5 mg/kg/injection, schedule: Q01DX009 (ip), vehicle: saline with Tween-80
[8] = dose: 25.0 mg/kg/injection, schedule: Q01DX009 (ip), vehicle: saline with Tween-80
[9] = dose: 50.0 mg/kg/injection, schedule: Q01DX009 (ip), vehicle: saline with Tween-80
[10] = dose: 100.0 mg/kg/injection, schedule: Q01DX009 (ip), vehicle: saline with Tween-80
[11] = dose: 400.0 mg/kg/injection, schedule: Q01DX009 (ip), vehicle: saline with Tween-80

Measured: T/C

CN1CC[N+](C)(Cc2ccc(C[N+]3(C)CC[N+](C)(Cc4ccc(CCl)cc4)CC3)cc2)CC1 (stereo not given)
inactive: dose: 12.5 mg/kg/injection, schedule: Q04DX003 (ip), vehicle: saline 112 % of control | [1] 102 % of control | [2] 119 % of control

COCC1(C)CCCC2(C)C3=C(CCC(OC)C3)CCC12 (stereo not given)
inactive: dose: 100.0 mg/kg/injection, schedule: Q01DX001 (ip), vehicle: saline 99 % of control | dose: 200.0 mg/kg/injection, schedule: Q01DX001 (ip), vehicle: saline 96 % of control | dose: 400.0 mg/kg/injection, schedule: Q01DX001 (ip), vehicle: saline 93 % of control

COc1ccc(Cc2n[nH]c(=S)n2-c2cc(C)ccc2C)cc1OC
inactive: [3] 102 % of control | [4] 91 % of control | [5] 93 % of control

CCOC(=O)C(CC)/C(C)=N\NC(N)=S (stereo not given)
inactive: dose: 60.0 mg/kg/injection, schedule: Q01DX005 (ip), vehicle: Klucel (hydroxypropylcellulose) (HPC) 100 % of control | dose: 120.0 mg/kg/injection, schedule: Q01DX005 (ip), vehicle: Klucel (hydroxypropylcellulose) (HPC) 101 % of control | dose: 240.0 mg/kg/injection, schedule: Q01DX005 (ip), vehicle: Klucel (hydroxypropylcellulose) (HPC) 99 % of control

c1ccc(C2CN3CCSC3=N2)cc1 (stereo not given)
inactive: dose: 3.13 mg/kg/injection, schedule: Q01DX009 (ip), vehicle: saline with Tween-80 98 % of control | dose: 3.75 mg/kg/injection, schedule: Q01DX005 (ip), vehicle: saline 101 % of control | [6] 100 % of control | dose: 7.5 mg/kg/injection, schedule: Q01DX005 (ip), vehicle: saline 100 % of control | [7] 98 % of control | dose: 15.0 mg/kg/injection, schedule: Q01DX005 (ip), vehicle: saline 99 % of control | [8] 103 % of control

ClCCn1cnc2c(SCc3ccccc3Cl)ncnc21
inactive: [8] 100 % of control | [9] 90 % of control | [10] 90 % of control

CNC(=O)CC(C(=O)O)N(C)C (stereo not given)
inactive: dose: 50.0 mg/kg/injection, schedule: Q01DX009 (ip), vehicle: water 98 % of control | dose: 100.0 mg/kg/injection, schedule: Q01DX009 (ip), vehicle: water 106 % of control | dose: 200.0 mg/kg/injection, schedule: Q01DX009 (ip), vehicle: water 107 % of control

Cc1c2c(cc3c4ccccc4n(C)c13)C(=O)c1ccccc1C2=O
inactive: dose: 100.0 mg/kg/injection, schedule: Q04DX002 (ip), vehicle: saline with Tween-80 90 % of control | dose: 200.0 mg/kg/injection, schedule: Q04DX002 (ip), vehicle: saline with Tween-80 87 % of control | dose: 400.0 mg/kg/injection, schedule: Q04DX002 (ip), vehicle: saline with Tween-80 92 % of control

OCC1(OC2OC(CF)C(O)C(O)C2O)OC(CF)C(O)C1O (stereo not given)
inactive: dose: 60.0 mg/kg/injection, schedule: Q01DX005 (ip), vehicle: saline 102 % of control | dose: 120.0 mg/kg/injection, schedule: Q01DX005 (ip), vehicle: saline 101 % of control

CCCNC(=S)N/N=C(/C)CC/C(C)=N/NC(=S)NCCC
inactive: dose: 12.5 mg/kg/injection, schedule: Q01DX009 (ip), vehicle: saline 98 % of control | dose: 25.0 mg/kg/injection, schedule: Q01DX009 (ip), vehicle: saline 99 % of control | dose: 50.0 mg/kg/injection, schedule: Q01DX009 (ip), vehicle: saline 104 % of control and 86 % of control

COc1ccc(/C(C#N)=C2\OC(=O)c3ccccc32)cc1OC
inactive: [6] 97 % of control | [7] 89 % of control | [9] 90 % of control | [11] 90 % of control

CC1=NN(c2ccccc2)C/C1=N\O
inactive: dose: 50.0 mg/kg/injection, schedule: Q01DX005 (ip), vehicle: Klucel (hydroxypropylcellulose) (HPC) 103 % of control | dose: 100.0 mg/kg/injection, schedule: Q01DX005 (ip), vehicle: Klucel (hydroxypropylcellulose) (HPC) 102 % of control

CC(C)SC(=O)C[Si](C)(C)C
inactive: dose: 50.0 mg/kg/injection, schedule: Q04DX003 (ip), vehicle: saline with Tween-80 98 % of control and 101 % of control | dose: 100.0 mg/kg/injection, schedule: Q04DX003 (ip), vehicle: saline with Tween-80 101 % of control and 104 % of control | dose: 200.0 mg/kg/injection, schedule: Q04DX003 (ip), vehicle: saline with Tween-80 103 % of control and 105 % of control | dose: 400.0 mg/kg/injection, schedule: Q04DX003 (ip), vehicle: saline with Tween-80 98 % of control

CC1OC(OCC2OC(Oc3c(-c4ccc(O)cc4)oc4cc(OC5OC(C)C(O)C(O)C5O)cc(O)c4c3=O)C(O)C(O)C2O)C(O)C(O)C1O (stereo not given)
inactive: [10] 95 % of control | dose: 100.0 mg/kg/injection, schedule: Q04DX003 (ip), vehicle: saline sonified 90 % of control | dose: 200.0 mg/kg/injection, schedule: Q01DX009 (ip), vehicle: saline with Tween-80 95 % of control | dose: 200.0 mg/kg/injection, schedule: Q04DX003 (ip), vehicle: saline sonified 90 % of control | [11] 95 % of control | dose: 400.0 mg/kg/injection, schedule: Q04DX003 (ip), vehicle: saline sonified 90 % of control

CSC(=N\N=C\c1ccc(N(C)C)cc1)/N=C/N(C)C
inactive: [3] 100 % of control | [4] 103 % of control | [5] 103 % of control

CNCCSSCCN
inactive: [1] 100 % of control | [2] 90 % of control | dose: 100.0 mg/kg/injection, schedule: Q04DX003 (ip), vehicle: saline 86 % of control
